According to patent US20230286973A1, “PROTEIN SECRETION INHIBITORS” (KEZAR LIFE SCIENCES, priority 2020, published 2023):

Key:
[1] = Liver Microsome Stability Assay (monkey); conditions: monkey liver microsomes, with NADPH, 1.0 uM compound
Method: (§1) Stability of a compound was assessed in the presence of liver microsomes from various sources—mouse, rat, monkey and human liver microsomes. 1.0 uM compound, 0.4% DMSO in 0.1 M Potassium Phosphate with 1.0 mg/mL liver microsomes, were incubated at 37° C. with or without 1 mM NADPH. The samples were quenched at 0, and 30 minutes.

[2] = Liver Microsome Stability Assay (mouse); conditions: mouse liver microsomes, with NADPH, 1.0 uM compound
Method: as §1

[3] = Liver Microsome Stability Assay (human); conditions: human liver microsomes, with NADPH, 1.0 uM compound
Method: as §1

[4] = test system: HER3-ss+4aa/Gaussia Luciferase; experiment: Dox-Induced Her3-ss-Gluc Assay; type: cell-based; conditions: 24 hr Dox induction; 293FRT/TO cells; mean; read-out: 24 hr Dox Inducible Her3(ss + 4)Gluc 293FRT/TO: Mean IC50
Method in brief: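 Stable Flp-In 293 T-REx cells carried a doxycycline-inducible HER3 signal sequence (+4 aa) fused to Gaussia luciferase. Cells were plated the day before the assay. Compound dilutions in DMSO/media containing doxycycline were then added, and plates were incubated at 37 °C, 5% CO2.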

[5] = test system: multiple myeloma cell line NCI-H929; experiment: H929 Cell Viability Assay; type: cell-based, human; conditions: Homo sapiens, NCI-H929, 48 h, NCI-H929 cells, Celltiter-Glo
Method in brief: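 NCI-H929 cells in RPMI 1640 with 10% FBS were treated with compound dilutions for 48 h at 37° C, 5% CO2. Viability was read by CellTiter-Glo luminescence. Undefined stereocentres denote stereoisomer mixtures.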

[6] = test system: multiple myeloma cell line U266B1; experiment: U266 Cell Viability Assay; type: cell-based, human; conditions: Homo sapiens, U-266, 48 h, U266B1 cells, Celltiter-Glo
Method in brief: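 U266B1 multiple myeloma cells in RPMI 1640/10% FBS were treated with compound dilutions for 48 h at 37 °C, 5% CO2. Viability was measured by CellTiter-Glo luminescence; compounds drawn without stereochemistry were tested as stereoisomer mixtures.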

[7] = test system: PD1-ss+10aa/Gaussia Luciferase; experiment: Dox-Induced PD1-ss-Gluc Assay; type: cell-based; conditions: 24 hr Dox induction; 293FRT/TO cells; mean; read-out: 24 hr Dox Inducible PD1ssGluc 293FRT/TO: Mean IC50
Method in brief: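 Stable Flp-In 293 T-REx cells carried a doxycycline-inducible construct of Gaussia luciferase fused to the PD1 signal sequence plus 10 amino acids. Cells were plated the day before, then treated with compound dilutions in DMSO/media containing doxycycline at 37 °C, 5% CO2.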

[8] = test system: IL-2-FL/Gaussia Luciferase; experiment: Dox Induced IL2-FL-Gluc Assay; type: cell-based; conditions: for IC50: 24 hr Dox induction, 293FRT/TO cells, mean, read-out: 24 hr Dox Inducible IL2FLGluc 293FRT/TO: Mean IC50; for 24 hr Dox Inducible IL2FLGluc 293FRT/TO: IL2/PD1: ratio of IL2FLGluc IC50 to PD1ssGluc IC50, '<=>' given where both are I.A.
Method in brief: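 Stable Flp-In 293 T-REx cells carrying doxycycline-inducible full-length IL-2 (aa 1-153) fused to Gaussia luciferase, plated the day before assay. Compound dilutions added in medium containing doxycycline, incubated at 37 °C, 5% CO2. Undefined stereocentres mean data refer to stereoisomer mixtures.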

[9] = test system: TNFα-FL/Gaussia Luciferase; experiment: Dox Induced TNFα-FL-Gluc Assay; type: cell-based; conditions: for IC50: 24 hr Dox induction, 293FRT/TO cells, mean, read-out: 24 hr Dox Inducible TNFaFLGluc 293FRT/TO: Mean IC50; for 24 hr Dox Inducible TNFaFLGluc 293FRT/TO: TNF/PD1: ratio of TNFaFLGluc IC50 to PD1ssGluc IC50, '<=>' given where both are I.A.
Method in brief: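 Flp-In 293 T-REx cells stably carrying doxycycline-inducible full-length TNFα (aa 1-233) fused to Gaussia luciferase. Plated the day before, then treated with compound dilutions in doxycycline-containing medium at 37° C, 5% CO2.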

[10] = Liver Microsome Stability Assay (rat); conditions: rat liver microsomes, with NADPH, 1.0 uM compound
Method: as §1

Row | Structure (SMILES) | Liver Microsome Stability (Multiple Species): Monkey - % Remaining after 30 min w/NADPH [1] [%] | Liver Microsome Stability (Multiple Species): Mouse - % Remaining after 30 min w/NADPH [2] [%] | Liver Microsome Stability (Multiple Species): Human - % Remaining after 30 min w/NADPH [3] [%] | IC50 [4] [nM] | EC50 [5] [nM] | EC50 [6] [nM] | IC50 [7] [nM] | IC50 [8] [nM] | IC50 [9] [nM] | Liver Microsome Stability (Multiple Species): Rat - % Remaining after 30 min w/NADPH [10] [%] | 24 hr Dox Inducible IL2FLGluc 293FRT/TO: IL2/PD1 [8] | 24 hr Dox Inducible TNFaFLGluc 293FRT/TO: TNF/PD1 [9]
1 | C[C@H](CC#N)Cn1cccc1C(=O)Nc1nc([C@H]2CCCN2c2ccccc2)cs1 [Compound C88, 1-((R)-3-cyano-2-methylpropyl)-N-(4-((R)-1-phenylpyrrolidin-2-yl)thiazol-2-yl)-1H-pyrrole-2-carboxamide] | 1.91 | 14.8 | 15.7 | 942 | 21800 | > 25000 | 581 | 1900 | 5930 | 5.31 | 3.3 | 10.2
2 | CC(C#N)CCn1cccc1C(=O)Nc1nc([C@H]2CCCN2c2ccccc2)cs1 (stereo partly drawn) [Compound C89, 1-(3-cyanobutyl)-N-(4-((R)-1-phenylpyrrolidin-2-yl)thiazol-2-yl)-1H-pyrrole-2-carboxamide] | 0.31 | 16.5 | 24 | 1790 | > 25000 | > 25000 | 1180 | 2860 | 14500 | 5.16 | 2.4 | 12.3
3 | CC(CCC#N)n1cccc1C(=O)Nc1nc([C@H]2CCCN2c2ccccc2)cs1 (stereo partly drawn) [Compound C90, 1-(4-cyanobutan-2-yl)-N-(4-((R)-1-phenylpyrrolidin-2-yl)thiazol-2-yl)-1H-pyrrole-2-carboxamide] | 1.77 | 1.54 | 1.77 | 2390 | > 25000 | > 25000 | 1650 | 4010 | 16100 | 7.22 | 2.4 | 9.76
4 | O=C(Nc1nc([C@H]2CCCN2c2ccc(C(F)(F)F)cc2)cs1)c1cccn1CC1CCOCC1 [Compound C91, (R)-1-((tetrahydro-2H-pyran-4-yl)methyl)-N-(4-(1-(4-(trifluoromethyl)phenyl)pyrrolidin-2-yl)thiazol-2-yl)-1H-pyrrole-2-carboxamide] | 28.2 | 88.3 | 67.8 | 127 | 4210 | > 25000 | 93.4 | 345 | 1240 | 41.8 | 3.7 | 13.3

Continued, in another order:

Row | Liver Microsome Stability (Multiple Species): Monkey - % Remaining after 30 min w/NADPH [1] [%] | Liver Microsome Stability (Multiple Species): Mouse - % Remaining after 30 min w/NADPH [2] [%] | Liver Microsome Stability (Multiple Species): Human - % Remaining after 30 min w/NADPH [3] [%] | IC50 [4] [nM] | EC50 [5] [nM] | EC50 [6] [nM] | IC50 [7] [nM] | IC50 [8] [nM] | IC50 [9] [nM] | Liver Microsome Stability (Multiple Species): Rat - % Remaining after 30 min w/NADPH [10] [%] | Structure (SMILES) | 24 hr Dox Inducible IL2FLGluc 293FRT/TO: IL2/PD1 [8] | 24 hr Dox Inducible TNFaFLGluc 293FRT/TO: TNF/PD1 [9]
5 | 5.09 | 15.8 | 7.96 | 3010 | 22000 | > 25000 | 2210 | 5550 | 24500 | 3.9 | O=C(Nc1nc([C@H]2CCCN2c2ccccc2)cs1)c1cccn1CCCC1CCOC1 (stereo partly drawn) [Compound C92, N-(4-((R)-1-phenylpyrrolidin-2-yl)thiazol-2-yl)-1-(3-(tetrahydrofuran-3-yl)propyl)-1H-pyrrole-2-carboxamide] | 2.5 | 11.1
6 | 6.79 | 16.3 | 3.12 | 1080 | > 25000 | > 25000 | 4270 | 1630 | > 25000 | 1.23 | N#CCc1ccccc1Cn1cccc1C(=O)Nc1nc([C@H]2CCCN2c2ccccc2)cs1 [Compound C93, (R)-1-(2-(cyanomethyl)benzyl)-N-(4-(1-phenylpyrrolidin-2-yl)thiazol-2-yl)-1H-pyrrole-2-carboxamide] | 0.38 | >5.86
7 | 10.6 | 52.1 | 63.4 | 2400 | > 25000 | > 25000 | 3590 | 3660 | > 25000 | 20.7 | O=C(Nc1nc([C@H]2CCCN2c2ccccc2)cs1)c1cccn1CC1CC(F)(F)C1 [Compound C94, (R)-1-((3,3-difluorocyclobutyl)methyl)-N-(4-(1-phenylpyrrolidin-2-yl)thiazol-2-yl)-1H-pyrrole-2-carboxamide] | 1 | >6.97
8 | 0.11 | 0.28 | 0.44 | 3.5 | 127 | 19600 | 5.05 | 15.5 | 104 | 1.89 | CCc1ccc(N2CCC[C@@H]2c2csc(NC(=O)c3cccn3Cc3ccncc3)n2)cn1 [Compound C95, (R)-N-(4-(1-(6-ethylpyridin-3-yl)pyrrolidin-2-yl)thiazol-2-yl)-1-(pyridin-4-ylmethyl)-1H-pyrrole-2-carboxamide] | 3.1 | 20.5
9 | 0.13 | 6.58 | 0.07 | 59.6 | 2960 | > 25000 | 63.7 | 280 | 943 | 0.76 | CCc1ccc(N2CCC[C@@H]2c2csc(NC(=O)c3cccn3CC3CCOCC3)n2)cn1 [Compound C96, (R)-N-(4-(1-(6-ethylpyridin-3-yl)pyrrolidin-2-yl)thiazol-2-yl)-1-((tetrahydro-2H-pyran-4-yl)methyl)-1H-pyrrole-2-carboxamide] | 4.4 | 14.8
10 | 0.26 | 19.1 | 26.1 | 2830 | 21900 | > 25000 | 1720 | 5380 | 16800 | 4.12 | O=C(Nc1nc([C@H]2CCCN2c2ccccc2)cs1)c1cccn1CCC1COC1 [Compound C99, (R)-1-(2-(oxetan-3-yl)ethyl)-N-(4-(1-phenylpyrrolidin-2-yl)thiazol-2-yl)-1H-pyrrole-2-carboxamide] | 3.1 | 9.72
